How the values were obtained:
[1] = test system: Maximal electroshock seizures; test: Maximal electroshock seizure (MES) anticonvulsant test; type: in vivo; conditions: mice; for Relative Power in relation to 2-propylpentanoic acid (Valproic acid): MES test; for MES test: Effective doses 50: ip, at time of peak effect, micromols per Kg of mouse weight
Method: In Vivo Experiments: The pharmacological tests were performed according to standard procedures provided by the Antiepileptic Drug Development (ADD) Program of the National Institute of Neurological and Communicative Disorders and Stroke (NINCDS). Anticonvulsant tests: Maximal electroshock seizures were elicited in mice by delivering a 60 Hz/50 mA electrical stimulus for 0.2 sec. via ear clip electrodes. A drop of saline solution applied on each ear before placing the electrodes ensures adequate electrical contact. In these conditions, maximal seizures are produced in virtually all normal mice. The maximal seizure typically consists of a short period of tonic flexion followed by a longer period of tonic extension of the hind limbs and a final clonic episode. Blockade of the hind limbs tonic extensor component due to the drug treatment is taken as the end point. […] Determination of the Time of Peak Effect (TPE): […] The percentages of protection or neurotoxicity are recorded and plotted against time and the TPEs are determined by visual inspection of the graphs. Estimation of the ED50s: Groups of 8 animals per dose are injected via ip. […] The percentages of protection at each dose (converted to probit) were plotted against log-doses.

mice = test: RotoRod minimal neurotoxicity test; type: in vivo; conditions: for Protection: Rotorot test on Effective Doses 50: mouse, in vivo
Method: In Vivo Experiments: The pharmacological tests were performed according to standard procedures provided by the Antiepileptic Drug Development (ADD) Program of the National Institute of Neurological and Communicative Disorders and Stroke (NINCDS). Neurotoxicity tests: The RotoRod test is used exclusively in mice to assess minimal neurotoxicity. A normal mouse can maintain its equilibrium on a rotating rod (6 rpm) for long periods of time. Neurological deficit is indicated by failure to keep walking on this rotating rod in each of three trials of 1 min each. Estimation of the neurotoxic effects: Groups of 8 animals per dose were injected and tested with the RotoRod test. The percentages of animals showing minimal neurotoxicity were recorded and the higher dose producing neurotoxic effects is reported.

Compound | Relative Power in relation to 2-propylpentanoic acid (Valproic acid) [1] | MES test: Effective doses 50 [1] | Protection: Rotorot test on Effective Doses 50 (mice) | Rotorod: animals showing neurotoxicity / animals tested (mice; mice, dose not given) | Protective index (Rotorod neurotoxic dose / MES ED50) (mice; ratio of Rotorod dose to MES ED50, mice)
CCCC(CCC)C(=O)OC1C(O)C(O)C(OC(=O)C(CCC)CCC)C(OC(=O)C(CCC)CCC)C1OC(=O)C(CCC)CCC (racemic) [Example 4, (±)-3,4,5,6-tetra-O-(2-propylpentanoyl)-myo-inositol] | 9 | 100 µmol/kg | 6 | – | –
CCCC(CCC)C(=O)OC1C(O)C(O)C(O)C(O)C1OC(=O)C(CCC)CCC (racemic) [Example 5, (±)-3,4-Di-O-(2-propylpentanoyl)-myo-inositol] | 35 | 35 µmol/kg | 12 | – | –
CCCC(CCC)C(=O)O[C@H]1[C@H](OC(=O)C(CCC)CCC)[C@@H](OC(=O)C(CCC)CCC)[C@H](OC(=O)C(CCC)CCC)[C@@H](OC(=O)C(CCC)CCC)[C@H]1OC(=O)C(CCC)CCC [Example 1, (±)1,2,3,4,5,6-hexa-O-(2-propylpentanoyl)-myo-inositol] | – | 100 µmol/kg | – | 0/6 | –
CCCC(CCC)C(=O)O [Valproic acid, valproic acid, reference compound] | 1 | 1010 µmol/kg | – | – | –
(±)-5,6-Di-O-(2-propylpentanoyl)-1,2:3,4-di-O-cyclohexyl-O-myo-inositol [Example 2] | 35 | 80 µmol/kg | – | – | 12

Reference: patent publication US7763650B2, “Pharmaceutical compound and method” (Medipharma S.A., priority 2006, dated 2010)
